As usually defined, the IC50 is the midpoint of a concentration-inhibition curve.

The values below come from PMC7486940, “Pre-symptomatic Caspase-1 inhibitor delays cognitive decline in a mouse model of Alzheimer disease and aging” (Nature Communications, 2020).

In series [1] the test system is Casp1. The arrangement: method as in PMID 30254377. Conditions: in vitro Casp1; cited from earlier work.
For series [2] the following is noted: cited from earlier work.
Series [3] relates to experimental allergic encephalitis multiple sclerosis mouse model. More on the design: method as in PMID 29895691. Conditions: cited from earlier work.
For series [4], the system named is J20 mice. Kind of series: open field. The class given is in vivo, mouse. To be noted: 50 mg/kg IP 3x/week for 1 month, 4- to 20-week WO. As to the method:
(§1) VX-765 (Adooq Bioscience, Irvine, CA, USA) was dissolved 5 mg • ml^−1 in 20% cremophor in dH2O[60] (Sigma-Aldrich, ON, Canada) and administered IPWT and J20 mice received three injections per week of either 50 mg • kg^−1 VX-765 or 20% cremophor vehicle for 4 weeks between 2 and 3 months of age. Mice were longitudinally followed starting 4 weeks after the last injection [4-week washout (WO)], then every other month at 12- and 20-week WO (6 and 8 months of age, respectively). Intermediate 8- and 16-week WO periods were also looked at with a smaller number of mice. After each WO period, animals were randomly chosen, independent of behavioural performance, for sacrifice and assigned to either histological or biochemical analysis (Fig. 2a).
(§2) Open-field and novel object recognition (NOR) were measured at all WO periods. The Barnes maze was assessed at 12- and 20-week WO. Open field: Mice were placed in an open-field chamber, composed of a plexiglass box with no ceiling and white floor, and allowed to explore for 5 min. NOR: Mice were pre-exposed to two identical objects in the open-field chamber for 5 min. Two hours after pre-exposure, mice were placed back into the chamber and exposed to one familiar object and one novel object for 5 min (test phase). Mice were exposed to a specific object only once across multiple test sessions. Barnes maze: Learning acquisition (days 1–4)—each mouse was trained to find the target and enter the escape box within 180 s. Four trials per day, ~15 min apart, were performed for 4 consecutive days. Probe (day 5)—a single, 90 s trial was performed on each mouse to measure primary latency and number of errors to reach the blocked target. Target hole location was changed between the two separate test sessions. Behavioural scoring was blinded to mouse genotype and treatment.

Series [5] has as its system WT mice. Kind of series: open field. The class given is in vivo, mouse. To be noted: 50 mg/kg IP 3x/week for 1 month. How it is done: as §1, §2
The test system of series [6] is CD68. Kind of series: CD68 immunostaining of phagocytic microglia and macrophages. The format is in vivo, mouse. To be noted: VX-765-treated J20; 20-week WO; no staining in any vehicle-treated J20. As to the method: as §1
Mice for immunohistochemistry were isoflurane anesthetized and perfused with ice-cold 4% paraformaldehyde in 0.1 M PBS (Sigma-Aldrich). Brains were post-fixed overnight in 10% neutral-buffered formalin (ThermoFisher Scientific, ON, Canada) and transferred to 70% ethanol for paraffin embedding and sectioning at 4 μm. Tissue slides underwent heat-induced antigen retrieval with citrate or EDTA buffer. Immunostaining was performed using the Dako Autostainer Plus slide processor and EnVision Flex system (Dako, ON, Canada). […]

Series [7] concerns Aβ. Description: Aβ immunostaining density and ELISA (RIPA- and FA-soluble). The class given is in vivo, mouse. How it is done:
as §1
Mice for immunohistochemistry were isoflurane anesthetized and perfused with ice-cold 4% paraformaldehyde in 0.1 M PBS (Sigma-Aldrich). Brains were post-fixed overnight in 10% neutral-buffered formalin (ThermoFisher Scientific, ON, Canada) and transferred to 70% ethanol for paraffin embedding and sectioning at 4 μm. Tissue slides underwent heat-induced antigen retrieval with citrate or EDTA buffer. Immunostaining was performed using the Dako Autostainer Plus slide processor and EnVision Flex system (Dako, ON, Canada). Sections were peroxidase treated, blocked in Serum-Free Protein Block, and immunostained with the following antibodies: 1:2000 rabbit anti-Iba1 (Wako, VA, USA), 1:500 rat anti-CD68 (clone FA-11, Bio-Rad, Hercules, CA, USA), 1:8000 rabbit anti-GFAP (Dako) and 1:2000 rabbit anti-Aβ1-40 (F25276, laboratory developed). CD68 antibody required an additional rabbit anti-rat IgG/HRP secondary reagent (Dako) incubation. […] Sections were digitally scanned with MIRAX SCAN (Zeiss, ON, Canada) and used for subsequent analyses.
Iba1-positive microglia were quantified using a modified version of an area-specific counting frame. The number of Iba1-positive cells per mm^3 in the anterior CA1 region and cortex was estimated across four sections, spaced 60 μm apart. Microglial activation level was determined based on morphological measurements[19],[41]. Aβ1-40 and GFAP immunostaining density was measured across four sections using ImageJ software (NIH, Bethesda, MD, USA). Quantification was blinded to treatment and genotype.
(§3) ELISA samples were prepared in RIPA described above. RIPA-insoluble pellets were further extracted in 70% formic acid (FA) in dH2O. FA was evaporated in a speed vacuum, and the resulting pellet was solubilized in 200 mM Tris-HCl, pH 7.5. IL-1β and Aβ levels (which include Aβ38, Aβ40 and Aβ42) were measured using Meso Scale Discovery ELISA kits (Rockville, MD, USA). Standards and samples were prepared according to the manufacturer’s protocols and run in duplicate.

Series [8] has as its system IL-1β. Kind of series: IL-1β and IL-18 levels (PCR, western blot, ELISA). The format is in vivo, mouse. As to the method: as §1
Twenty to sixty micrograms of protein or 16 μl of precipitated protein from culture medium were separated on SDS-PAGE or 4–12% NuPAGE Bis-Tris gels (Invitrogen, Carlsbad, CA, USA) with MES buffer (Invitrogen) and transferred onto PVDF membranes (Bio-Rad) according to the manufacturer’s instructions. Membranes were probed with the following antibodies: 1:1000 mouse anti-Aβ1-16 (6E10) (BioLegend, CA, USA), 1:2000 rabbit anti-APP C-terminus (A8717) (Sigma-Aldrich), 1:1000 rabbit anti-neprilysin (Nep, Abcam, ON, Canada), 1:500 rabbit anti-insulin degrading enzyme (IDE, Abcam), 1:3000 rabbit anti-GFAP (Dako), 1:1000 rabbit anti-IL-1β (Abcam), 1:1000 rat anti-Caspase-1 (clone 4B4.2.1, kindly provided by Genentech, San Francisco, CA, USA) and 1:1000 mouse anti-β-actin (Sigma-Aldrich). […] Signals were visualized with the ImageQuant LAS 4000 imaging system and densitometric analyses were performed with Image Gauge analysis software 3.0 (Fujifilm USA, NY, USA). Protein extracts from three independent mice in each group were run together on each blot. Protein levels were normalized to β-actin and expressed as a percentage relative to the vehicle-treated WT group, except for APP which was compared to the vehicle-treated J20 group. Representative full blots are shown in the Source data file.
as §3
Real-time PCR experiments were performed with SYBR Green Taq Mastermix (Quanta BioSciences, MD, USA) in a real-time cycler ABI 7500 Fast Block (Applied Biosystems, CA, USA). Primer sequences are described in the supplementary material. […]
(In general: A western blot detects proteins with antibodies after separation by electrophoresis.)

Series [9] has as its system CD4 T-cell. The arrangement: method as in PMID 24356306. Conditions: HIV; cited from earlier work.

The structures appear in SMILES notation.

For `CCO[C@@H]1OC(=O)C[C@@H]1NC(=O)[C@@H]1CCCN1C(=O)[C@@H](NC(=O)c1ccc(N)c(Cl)c1)C(C)(C)C` [VX-765, (S)-1-((S)-2-{[1-(4-amino-3-chloro-phenyl)-methanoyl]-amino}-3,3-dimethyl-butanoyl)-pyrrolidine-2-carboxylic acid ((2R,3S)-2-ethoxy-5-oxo-tetrahydro-furan-3-yl)-amide], the concentration for half-maximal inhibition (IC50) in [1] was 3.68 nM. Also, the “in vitro half-life (t1/2)” value in [2] is ~ 157 h. Moreover, the “inflammasome-related gene expression, axonal injury, behaviour” value in series [3] is “reduce inflammasome-related gene expression, axonal injury, improve behaviour”. In addition, in series [4], the “open field hyperactivity (distance travelled, quadrant entries)” value was “attenuated hyperactivity in J20 mice only at 4-week WO”. The open field activity entry in series [5] (WT, all WO periods) was “had no effect on WT mice at any WO period”. Further, in [5] (between vehicle and VX-765 treatment), the “open field locomotor activity, time moving, thigmotaxis” value is recorded as “no differences in locomotor activity, time moving or thigmotaxis”. For the same molecule, the “mice with CD68 positive staining” value in series [6] is “four out of the five”. Moreover, the “FA-soluble Aβ42 levels, Aβ42/total Aβ ratio, cortical Aβ subtypes” value in series [7] (J20, 20-week WO) is “did not affect hippocampal Aβ42 levels and Aβ42/total Aβ ratio, or any Aβ subtype in the cortex”. Further, in [7] (J20 hippocampus and cortex, vs vehicle), the Aβ staining density entry was “significantly decreased Aβ staining density only in the cortex at 12-week WO”. Besides, the “RIPA-soluble Aβ38, Aβ40, Aβ42 or total Aβ levels” value in series [7] (J20 hippocampus or cortex, all WO periods, vehicle vs VX-765) was “no significant differences”. Also, in [7] (J20 hippocampus or cortex, any WO period), the “formic acid (FA)-soluble total Aβ levels” value was “did not differ between vehicle and VX-765 treatment”. For the same molecule, in series [7] (J20 hippocampus, 20-week WO), the “FA-soluble hippocampal Aβ38 and Aβ40 levels” value was “increased FA-soluble hippocampal Aβ38 and Aβ40 levels at 20-week WO”; the “RIPA-soluble Aβ42/total Aβ ratio” value is “significantly higher in vehicle- compared to VX-765-treated hippocampus in J20 mice at 20-week WO”. In addition, in series [8] (J20 cortex, 20-week WO), the “active IL-1β levels (western blot)” value is given as “normalized with VX-765 treatment at 20-week WO”. Besides, the “Il-1β mRNA” value in [8] (J20 hippocampus, 16-week WO) is “normalized with VX-765 treatment at 16-week WO”. The “cortical IL-1β levels (ELISA)” value in series [8] (cortex, any WO) is given as “did not differ between groups at any WO”. Besides, in [8] (hippocampus, 4-, 12-, or 20-week WO), the “total protein IL-1β levels (ELISA)” value is on record as “did not differ between treatment groups”. Also, the “inflammation, CD4 T-cell death and pyroptosis” value in series [9] was “reduce inflammation by suppressing CD4 T-cell death and pyroptosis in HIV”.
